Data reported in publication PMC5400565, “Real-time near-infrared fluorescence imaging using cRGD-ZW800-1 for intraoperative visualization of multiple cancer types” (Oncotarget, 2017).

Assays:
KV channel = test: Off-target screening (Eurofins Cerep), KV channel; format: binding
From the text: (§1) Off-target interactions are binding of tracers to other components on the cell surface than the actual target site. These non-specific interactions are often of low affinity and easily missed, but can have significant effects. We outsourced the screening for in vitro for off-target interactions of cRGD-ZW800-1 to Eurofins Cerep SA, Le bois l’Evêque, France. They assessed the percentage of inhibition of a reference compound in 44 selected targets, including G protein-coupled receptors (GPCRs), transporters, ion channels, nuclear receptors, kinases and other non-kinase enzymes. These targets were recommended by four major pharmaceutical companies. The complete list is included in Supplementary Table 1 of the Supplementary Data. Each assay was performed twice using 10 μM cRGD-ZW800-1 and a reference compound. Inhibition higher than 50% was considered to represent a significant effect of cRGD-ZW800-1. Results showing between 20% and 50% were considered weak to moderate effects, while lower than 20% was not considered significant and mostly attributable to variability of the signal around the control level.

Endothelin ETA = target: T1, Endothelin ETA (Homo sapiens, UniProt P25101); test: Off-target screening (Eurofins Cerep), ETA; format: binding
T1 construct: Eurofins Cerep SA (contract screening)

MCF-7 breast tumors = test: NIR fluorescence imaging, MCF-7 breast tumors; format: in vivo, mice; details: 10 nmol, Pearl
Protocol: To induce subcutaneous tumors, colorectal cancer cells (HT-29) were injected at 4 sites on the back (500,000 cells per spot). Subsequently, these colorectal tumor cells were transplanted on the colon of other mice, as described by Tseng et al.. Approximately 500,000 pancreatic tumor cells (BxPC-3) were injected into the pancreas, as previously described by Kim et al.. Approximately 40,000 oral tumor cells (OSC-19) were injected in the tongue, as previously described by van Driel et al.. Approximately 500,000 breast tumor cells (MCF-7) were injected in both sides of the mammary fat pad to induce breast cancer tumors.
All animals were imaged using a Pearl® imager (LI-COR, Lincoln, NE) and an original FLARE® prototype. Animals with HT-29 tumors were imaged at 4 and 24 h post injection; animals with BxPC-3 and OSC-19 tumors at 4 h only. Animals with MCF-7 tumors were imaged at 0.5, 1, 2, 4, 6, 8, 24 and 48 h post injection. The specific and control images were normalized and regions of interest (ROIs) were selected using associated software. TBRs were calculated by dividing the tumor signal by the background signal. Based on our experience a TBR ≥ 2 is sufficient to discriminate between tumor and surrounding tissue.
(§2) Mice bearing orthotopic OSC-19 tumors (n = 2) were administrated with 10 nmol cRGD-ZW800-1 and imaged at 4 h. Mice bearing orthotopic MCF-7 tumors (n = 2) were injected with 10 nmol cRGD-ZW800-1 and imaged at 0.5, 1, 2, 4, 6, 8, 24, and 48 h post injection. One mouse with 2 MCF-7 tumors was administered with 10 nmol cRGD-ZW800-1 and imaged at 4 h post injection while its skin was partially removed. In vivo TBRs were calculated by dividing the mean fluorescence signals of tumors by the mean of surrounding tissue. Ex vivo organ-to-tumor ratios were calculated by dividing the fluorescence intensity of the organ by that of the tumor.

BxPC-3 tumors and organs = test: Ex vivo biodistribution, BxPC-3 model; format: in vivo, mice; details: 4 h post injection
Protocol: After imaging, mice were sacrificed and OSC-19 and BxPC-3 tumors were quickly frozen in isopentane at -80°C for histological evaluation. Tissues were sectioned at 10 μm and fluorescence imaging was performed using fluorescence microscopy (Nikon eclipse e800, Nikon, Amsterdam, The Netherlands). All histologic sections were stained with standard hematoxylin-eosin stain (HE). Organs of mice with colorectal and pancreatic cancer were collected and imaged using the Pearl® to evaluate biodistribution.
Mice were administered with 0.25 (HT-29 model only), 1.0, 10, or 30 nmol cRGD-ZW800-1 to evaluate tumor signals, biodistribution, and to calculate TBRs (n = 3 per dose group). At 4 h (BxPC-3 model) and 24 h (HT-29 model) after injection, mice were fully dissected and fluorescence intensity of their organs was measured.
as §2

Serotonin channels 5-HT3 = target: T2, Serotonin channels 5-HT3 (Homo sapiens, UniProt P46098); test: Off-target screening (Eurofins Cerep), 5-HT3; format: binding
T2 construct: Eurofins Cerep SA (contract screen)

[1] = target: T3, lymphocyte-specific protein tyrosine kinase (LCK) (Homo sapiens, UniProt P06239); test: Off-target screening (Eurofins Cerep), Lck kinase; format: biochemical
T3 construct: Eurofins Cerep SA (contract screen)

Adrenergic α1A = target: T4, Adrenergic α1A (Homo sapiens, UniProt P35348); test: Off-target screening (Eurofins Cerep), α1A; format: binding
T4 construct: Eurofins Cerep SA (contract screening)
T4 sequence (P35348 1-466): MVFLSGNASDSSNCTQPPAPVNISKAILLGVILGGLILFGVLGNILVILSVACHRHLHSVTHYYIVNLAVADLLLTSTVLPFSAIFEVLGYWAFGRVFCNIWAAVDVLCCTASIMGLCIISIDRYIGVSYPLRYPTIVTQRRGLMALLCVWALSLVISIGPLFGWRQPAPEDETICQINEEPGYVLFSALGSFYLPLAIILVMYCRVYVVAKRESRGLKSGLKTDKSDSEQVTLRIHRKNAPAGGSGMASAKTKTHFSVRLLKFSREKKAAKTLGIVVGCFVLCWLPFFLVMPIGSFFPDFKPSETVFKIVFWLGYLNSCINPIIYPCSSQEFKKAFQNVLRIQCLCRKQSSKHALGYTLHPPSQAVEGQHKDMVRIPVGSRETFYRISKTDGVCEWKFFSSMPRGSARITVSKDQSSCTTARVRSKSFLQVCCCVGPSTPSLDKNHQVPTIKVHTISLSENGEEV
From the text: as §1

Na+ channel (site 2) = test: Off-target screening (Eurofins Cerep), Na+ channel; format: binding
From the text: as §1

[2] = target: Ca2+ channel (L, dihydropyridine site) (Rattus norvegicus, UniProt P22002); test: Off-target screening (Eurofins Cerep), Ca2+ channel; format: binding
From the text: as §1

[3] = 10 μM cRGD-ZW800-1, format An, performed twice
[4] = 10 μM, mean of 2, read-out: % of Control Specific Binding Mean

T1 sequence (P25101 21-427): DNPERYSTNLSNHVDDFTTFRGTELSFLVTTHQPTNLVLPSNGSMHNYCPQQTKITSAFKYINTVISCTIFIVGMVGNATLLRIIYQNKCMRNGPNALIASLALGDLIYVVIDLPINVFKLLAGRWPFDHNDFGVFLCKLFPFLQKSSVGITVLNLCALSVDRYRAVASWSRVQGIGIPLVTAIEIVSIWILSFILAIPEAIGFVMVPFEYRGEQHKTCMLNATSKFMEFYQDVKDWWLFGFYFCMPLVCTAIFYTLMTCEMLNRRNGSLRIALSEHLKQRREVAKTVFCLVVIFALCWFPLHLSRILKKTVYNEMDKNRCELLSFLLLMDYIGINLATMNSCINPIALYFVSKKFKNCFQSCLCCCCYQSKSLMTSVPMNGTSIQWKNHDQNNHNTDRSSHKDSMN
T2 sequence (P46098 24-478): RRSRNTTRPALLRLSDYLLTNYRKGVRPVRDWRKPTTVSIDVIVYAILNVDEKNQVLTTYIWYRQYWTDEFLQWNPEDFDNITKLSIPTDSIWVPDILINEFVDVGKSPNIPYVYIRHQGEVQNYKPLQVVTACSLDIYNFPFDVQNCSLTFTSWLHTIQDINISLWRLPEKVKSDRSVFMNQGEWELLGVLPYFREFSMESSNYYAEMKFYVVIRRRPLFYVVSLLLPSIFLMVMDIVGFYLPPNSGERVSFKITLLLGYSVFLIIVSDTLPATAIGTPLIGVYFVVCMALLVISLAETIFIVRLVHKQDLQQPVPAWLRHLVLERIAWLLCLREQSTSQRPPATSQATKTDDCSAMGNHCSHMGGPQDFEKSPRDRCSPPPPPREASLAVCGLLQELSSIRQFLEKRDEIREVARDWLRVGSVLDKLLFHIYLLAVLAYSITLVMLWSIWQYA
T3 sequence (P06239 whole entry): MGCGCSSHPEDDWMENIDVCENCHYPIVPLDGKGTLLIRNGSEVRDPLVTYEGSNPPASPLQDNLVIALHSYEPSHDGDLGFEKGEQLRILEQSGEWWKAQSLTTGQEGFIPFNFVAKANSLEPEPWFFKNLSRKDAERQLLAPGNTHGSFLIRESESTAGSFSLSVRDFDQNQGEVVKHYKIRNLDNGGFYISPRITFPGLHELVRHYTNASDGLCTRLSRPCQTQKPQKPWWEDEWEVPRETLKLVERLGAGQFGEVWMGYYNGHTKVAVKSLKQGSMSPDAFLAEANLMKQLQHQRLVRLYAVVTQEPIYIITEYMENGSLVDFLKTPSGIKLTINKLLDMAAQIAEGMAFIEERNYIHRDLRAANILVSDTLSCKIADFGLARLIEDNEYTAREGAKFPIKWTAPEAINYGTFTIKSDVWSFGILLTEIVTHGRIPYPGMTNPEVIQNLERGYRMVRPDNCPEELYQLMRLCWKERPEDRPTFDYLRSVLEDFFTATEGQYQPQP
Ca2+ channel (L, dihydropyridine site), sequence (P22002 whole entry): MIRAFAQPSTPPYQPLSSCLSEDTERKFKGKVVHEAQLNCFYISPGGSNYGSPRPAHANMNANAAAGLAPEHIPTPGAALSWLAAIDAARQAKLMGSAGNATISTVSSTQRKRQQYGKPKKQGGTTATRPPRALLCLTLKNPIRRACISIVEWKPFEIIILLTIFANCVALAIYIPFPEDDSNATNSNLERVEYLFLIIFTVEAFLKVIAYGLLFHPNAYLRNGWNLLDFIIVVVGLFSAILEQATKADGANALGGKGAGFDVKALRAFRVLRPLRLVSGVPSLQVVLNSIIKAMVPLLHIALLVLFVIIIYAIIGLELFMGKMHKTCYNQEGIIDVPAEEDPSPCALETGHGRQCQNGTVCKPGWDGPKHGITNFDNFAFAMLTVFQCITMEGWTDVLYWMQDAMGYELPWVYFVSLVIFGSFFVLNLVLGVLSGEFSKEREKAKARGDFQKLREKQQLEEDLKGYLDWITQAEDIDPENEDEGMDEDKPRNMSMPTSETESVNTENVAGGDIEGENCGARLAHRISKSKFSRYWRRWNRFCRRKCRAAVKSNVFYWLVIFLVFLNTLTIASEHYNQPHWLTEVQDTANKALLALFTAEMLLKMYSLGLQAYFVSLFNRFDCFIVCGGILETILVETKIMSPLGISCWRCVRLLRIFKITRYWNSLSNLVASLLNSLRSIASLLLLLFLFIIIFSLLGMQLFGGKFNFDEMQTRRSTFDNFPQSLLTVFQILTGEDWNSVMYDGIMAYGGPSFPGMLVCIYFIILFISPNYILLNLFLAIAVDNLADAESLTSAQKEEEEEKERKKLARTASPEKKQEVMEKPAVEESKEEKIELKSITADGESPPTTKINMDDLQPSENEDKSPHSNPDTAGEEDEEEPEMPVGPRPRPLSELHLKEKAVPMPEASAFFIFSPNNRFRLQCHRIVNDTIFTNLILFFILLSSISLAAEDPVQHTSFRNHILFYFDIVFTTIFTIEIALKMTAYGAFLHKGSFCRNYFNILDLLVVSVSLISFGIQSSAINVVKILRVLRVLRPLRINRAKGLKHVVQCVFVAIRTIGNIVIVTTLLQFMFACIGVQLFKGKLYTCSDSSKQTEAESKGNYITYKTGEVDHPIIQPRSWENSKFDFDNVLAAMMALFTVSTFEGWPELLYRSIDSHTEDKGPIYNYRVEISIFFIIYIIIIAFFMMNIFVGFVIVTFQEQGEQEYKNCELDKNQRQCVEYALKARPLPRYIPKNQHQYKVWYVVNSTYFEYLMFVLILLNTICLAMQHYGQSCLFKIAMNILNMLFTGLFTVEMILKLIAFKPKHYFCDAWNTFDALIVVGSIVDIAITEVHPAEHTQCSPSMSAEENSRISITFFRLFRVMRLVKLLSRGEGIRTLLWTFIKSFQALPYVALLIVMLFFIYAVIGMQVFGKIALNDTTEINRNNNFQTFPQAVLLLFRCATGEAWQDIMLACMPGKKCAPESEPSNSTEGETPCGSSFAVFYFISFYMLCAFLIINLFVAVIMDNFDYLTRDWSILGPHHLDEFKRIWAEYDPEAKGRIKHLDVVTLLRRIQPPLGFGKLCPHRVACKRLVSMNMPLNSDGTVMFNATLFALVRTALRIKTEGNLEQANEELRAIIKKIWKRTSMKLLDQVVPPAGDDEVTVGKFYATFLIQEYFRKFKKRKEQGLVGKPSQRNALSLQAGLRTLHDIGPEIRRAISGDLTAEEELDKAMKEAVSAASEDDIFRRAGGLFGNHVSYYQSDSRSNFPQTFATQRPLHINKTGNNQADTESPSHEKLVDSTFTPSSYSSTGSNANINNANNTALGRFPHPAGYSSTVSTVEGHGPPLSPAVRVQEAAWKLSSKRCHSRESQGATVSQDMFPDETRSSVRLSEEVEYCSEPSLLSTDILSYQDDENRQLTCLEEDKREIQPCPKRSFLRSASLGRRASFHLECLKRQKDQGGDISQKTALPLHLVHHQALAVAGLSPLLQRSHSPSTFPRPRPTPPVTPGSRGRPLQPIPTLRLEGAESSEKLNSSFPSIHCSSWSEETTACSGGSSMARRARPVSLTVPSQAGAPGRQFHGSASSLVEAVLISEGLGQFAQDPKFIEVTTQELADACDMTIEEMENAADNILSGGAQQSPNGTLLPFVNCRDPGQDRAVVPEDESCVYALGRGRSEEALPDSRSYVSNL

CC1(C)C(/C=C/C2=C(Oc3ccc(CCC(=O)NCCCC[C@@H]4NC(=O)[C@@H](Cc5ccc(O)cc5)NC(=O)[C@H](CC(=O)O)NC(=O)CNC(=O)[C@H](CCCNC(=N)N)NC4=O)cc3)C(=C/C=C3/N(CCC[N+](C)(C)C)c4ccc(S(=O)(=O)O)cc4C3(C)C)/CCC2)=[N+](CCC[N+](C)(C)C)c2ccc(S(=O)(=O)O)cc21 [cRGD-ZW800-1]
% Inhibition of Control Specific Binding (KV channel; [3]): 2%
% of Control Specific Binding Mean (KV channel; 10 μM, mean of 2): 98.0%
inhibition at 10 µM (Endothelin ETA; 10 μM cRGD-ZW800-1, format H, Ag, performed twice, read-out: % Inhibition of Control Specific Binding): 1%
remaining activity at 10 µM (Endothelin ETA; [4]): 98.6%
decrease of fluorescence intensity of tumors at 4 h compared to 0.5 h post injection (MCF-7 breast tumors): 61% ± 8%
decrease of fluorescence intensity of tumors at 24 h compared to 0.5 h post injection (MCF-7 breast tumors): 77% ± 4%
TBR at 4 h post injection, with skin (MCF-7 breast tumors; single mouse with 2 tumors): 1.5 ± 0.1
TBR at 4 h post injection, skin removed (MCF-7 breast tumors; single mouse with 2 tumors, p = 0.02): 3.0 ± 0.3
tumor fluorescence relative to skin, intestines, lungs, muscle, gallbladder, brain, and blood (BxPC-3 tumors and organs; all doses, ex vivo, Pearl): at least twice as fluorescent
fluorescence signals in kidneys relative to tumors (BxPC-3 tumors and organs; ex vivo): equal to or higher than tumors
fluorescence ratios of large intestines and liver compared with tumors (BxPC-3 tumors and organs; ex vivo organ-to-tumor ratio): around half
inhibition at 10 µM (Serotonin channels 5-HT3; read-out: % Inhibition of Control Specific Binding): 12%
remaining activity at 10 µM (Serotonin channels 5-HT3; read-out: % of Control Specific Binding Mean): 87.7%
inhibition at 10 µM ([1]; 10 μM cRGD-ZW800-1, format H, performed twice, read-out: % Inhibition of Control Specific Binding): 28%
remaining activity at 10 µM [1, 4]: 72.3%
inhibition at 10 µM (Adrenergic α1A; 10 μM cRGD-ZW800-1, format H, An, performed twice, read-out: % Inhibition of Control Specific Binding): 9%
remaining activity at 10 µM (Adrenergic α1A; [4]): 90.6%
% Inhibition of Control Specific Binding (Na+ channel (site 2); [3]): 20%
% of Control Specific Binding Mean (Na+ channel (site 2); 10 μM, mean of 2): 79.9%
inhibition at 10 µM ([2]; Ca2+ channel (L, dihydropyridine site), 10 μM cRGD-ZW800-1, format An, performed twice, read-out: % Inhibition of Control Specific Binding): 15%
remaining activity at 10 µM ([2]; Ca2+ channel, 10 μM, mean of 2, read-out: % of Control Specific Binding Mean): 84.6%
